Assay results published in PMC10281575, “PfCRT mutations conferring piperaquine resistance in falciparum malaria shape the kinetics of quinoline drug binding and transport” (PLOS Pathogens, 2023).
Several values for one entry are separate records, joined by “and”; a condition that tells them apart may be missing. Identical values can stand only once.

Assays:
PfCRT^HB3 = target: T1, PfCRT^HB3 (Plasmodium falciparum, UniProt Q8IBZ9); assay: Radiolabeled drug uptake in X. laevis oocytes expressing wild type PfCRT^HB3; format: cell-based; conditions: pH 6.0
T1 construct: expressed in transfected cells; host or cells: Xenopus laevis oocytes injected with in vitro transcribed RNA (pSP64T)
T1 sequence (Q8IBZ9 whole entry): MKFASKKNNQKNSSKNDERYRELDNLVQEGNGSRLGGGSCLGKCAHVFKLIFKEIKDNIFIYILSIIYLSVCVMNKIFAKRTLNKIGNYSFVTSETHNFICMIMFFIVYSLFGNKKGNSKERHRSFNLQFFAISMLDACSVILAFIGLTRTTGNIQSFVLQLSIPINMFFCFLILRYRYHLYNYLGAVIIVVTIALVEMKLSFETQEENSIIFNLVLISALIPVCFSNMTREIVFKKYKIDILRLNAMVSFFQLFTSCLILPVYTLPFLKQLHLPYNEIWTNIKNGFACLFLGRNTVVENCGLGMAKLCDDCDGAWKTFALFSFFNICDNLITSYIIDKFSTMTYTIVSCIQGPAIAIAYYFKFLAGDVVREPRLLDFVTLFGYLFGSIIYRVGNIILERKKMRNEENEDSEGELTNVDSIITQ
Protocol: (§1) Adult female X. laevis frogs (purchased from NASCO) were anesthetized by submersion in a solution of 0.3% (w/v) 3-amino benzoate methanesulfonate for 15 min. Sections of the ovary were surgically removed and placed in Ca^2+-free ND96 buffer supplemented with 0.1% collagenase D (w/v; Roche), 0.5% BSA (w/v) and 9 mM Na2HPO4 at 18°C for 14–16 h while gently shaking. The oocytes were then washed several times with ND96 buffer (5 mM HEPES, pH 7.5, 96 mM NaCl, 2 mM KCl, 1.8 mM CaCl2, 1 mM MgCl2), supplemented with […] gentamycin. Healthy-looking stage V-VI oocytes were manually selected and randomly grouped for injection. A codon-optimized coding sequence of PfCRT was subcloned into the pSP64T expression vector and subsequently linearized using the restriction endonuclease BamHI or SalI (New England Biolabs GmbH). RNA for injection was transcribed in vitro using the mMESSAGE mMACHINE SP6 Transcription kit (Ambion), diluted with nuclease-free water to a final concentration of 0.6 μg/μL and stored at -80°C. RNA was injected using precision-bore glass capillary tubes (3.5-inch glass capillaries; Drummond Scientific Co.), which were pulled on a vertical puller (P-87 Flaming/Brown micropipette puller, Sutter Instrument Co.) and graduated. The micropipettes were connected to a microinjector (Nanoject II Auto-Nanoliter Injector, Drummond Scientific Co.). Injection was conducted under stereomicroscopic control. 50 nL of nuclease-free water alone (control oocytes) or 50 nL of nuclease-free water containing 30 ng of RNA was injected per oocyte. Injected oocytes were kept for 72 h at 18°C in ND96 buffer with two daily buffer changes before being used for further experiments.
(§2) Drug transport assays were performed as previously described. Briefly, measurements of radiolabeled drug uptake were made over 1 h, unless otherwise specified. […] Where specified, one or more unlabeled drugs were also present at the indicated concentrations. […] The uptake assays were terminated by removing the oocytes from the reaction medium and washing them three times with 2 mL of ice-cold ND96 buffer. Each oocyte was transferred to a separate scintillation vial and lysed by the addition of 200 μL of a 5% SDS solution. The radioactivity in the sample was measured using a liquid scintillation analyser Tri-Carb 4910 TR (PerkinElmer). Water-injected oocytes were analyzed in parallel as a negative control. The buffer from each condition was measured in duplicate in parallel to each experiment to transform counts per minute into pmol of drug. Drug uptake attributable to PfCRT was determined by subtracting the background uptake from water-injected oocytes from that of PfCRT-expressing oocytes. In all cases, at least three independent experiments were performed on oocytes from different frogs, and for each condition in an experiment, measurements were made from 10 oocytes per treatment.

PfCRT^Dd2_H97Y_F145I = target: T2, PfCRT^Dd2_H97Y_F145I (Plasmodium falciparum, UniProt Q8IBZ9, A220S/F145I/H97Y/I356T/K76T/M74I/N326S/N75E/Q271E/R371I); assay: Radiolabeled drug uptake in X. laevis oocytes expressing PfCRT^Dd2_H97Y_F145I; format: cell-based; conditions: for PfCRTDd2_H97Y_F145I-mediated CQ transport / PfCRTDd2_H97Y_F145I-mediated PPQ transport: individual replicates (Fig 11); for Hc, Hill coefficient / Vmax, maximal velocity of drug transport / Km: Hill equation fit, 10-500 μM drug, pH 6; for Km: read-out: KM, Michaelis constant
T2 construct: expressed in transfected cells; host or cells: Xenopus laevis oocytes injected with in vitro transcribed RNA
T2 sequence (Q8IBZ9 1-424 M74I/N75E/K76T/H97Y/F145I/A220S/Q271E/N326S/I356T/R371I): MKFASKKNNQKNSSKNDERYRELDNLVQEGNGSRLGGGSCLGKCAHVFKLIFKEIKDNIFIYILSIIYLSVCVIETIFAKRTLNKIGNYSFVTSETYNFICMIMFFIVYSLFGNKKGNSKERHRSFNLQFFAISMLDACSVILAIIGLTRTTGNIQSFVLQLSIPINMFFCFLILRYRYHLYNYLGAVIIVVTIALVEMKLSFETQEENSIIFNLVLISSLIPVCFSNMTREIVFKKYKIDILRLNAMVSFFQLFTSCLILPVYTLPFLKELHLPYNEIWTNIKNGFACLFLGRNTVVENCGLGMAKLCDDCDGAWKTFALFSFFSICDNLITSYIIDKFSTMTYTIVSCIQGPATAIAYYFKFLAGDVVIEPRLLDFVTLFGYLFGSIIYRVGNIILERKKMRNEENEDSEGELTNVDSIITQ
Protocol: as §1, §2

[1] = 50 μM CQ, total uptake, one value per biological replicate
[2] = 50 μM CQ, water-injected uptake subtracted, per replicate
[3] = 50 μM PPQ, total uptake, one value per biological replicate
[4] = 50 μM PPQ, water-injected uptake subtracted, per replicate

Compound: CCN(CC)CCCC(C)Nc1ccnc2cc(Cl)ccc12 (centres unmarked) [CQ, chloroquine]
- PfCRTHB3 uptake of CQ at 10 min (PfCRT^HB3; [1]): 3.76 pmol oocyte-1 and 2.69 pmol oocyte-1 and 4.10 pmol oocyte-1 and 2.94 pmol oocyte-1
- PfCRTHB3 uptake of CQ at 30 min (PfCRT^HB3; [1]): 5.04 pmol oocyte-1 and 6.21 pmol oocyte-1 and 4.82 pmol oocyte-1
- PfCRTHB3 uptake of CQ at 60 min (PfCRT^HB3; [1]): 10.53 pmol oocyte-1 and 9.06 pmol oocyte-1 and 13.05 pmol oocyte-1 and 9.38 pmol oocyte-1
- PfCRTHB3 uptake of CQ at 90 min (PfCRT^HB3; [1]): 10.44 pmol oocyte-1 and 13.59 pmol oocyte-1 and 10.43 pmol oocyte-1
- PfCRTHB3 uptake of CQ at 120 min (PfCRT^HB3; [1]): 15.66 pmol oocyte-1 and 14.17 pmol oocyte-1 and 15.57 pmol oocyte-1
- PfCRTHB3 uptake of CQ at 180 min (PfCRT^HB3; [1]): 15.78 pmol oocyte-1 and 15.62 pmol oocyte-1 and 19.97 pmol oocyte-1
- PfCRTDd2_HB3-mediated CQ uptake at 60 min (PfCRT^HB3; [2]): 0.25 pmol oocyte-1 and -1.21 pmol oocyte-1 and 2.78 pmol oocyte-1 and -0.90 pmol oocyte-1
- PfCRTHB3-mediated CQ uptake at 10 min (PfCRT^HB3; [2]): 0.87 pmol oocyte-1 and -0.20 pmol oocyte-1 and 1.21 pmol oocyte-1 and 0.05 pmol oocyte-1
- PfCRTHB3-mediated CQ uptake at 30 min (PfCRT^HB3; [2]): 1.16 pmol oocyte-1 and -0.23 pmol oocyte-1 and 0.94 pmol oocyte-1 and -0.44 pmol oocyte-1
- PfCRTHB3-mediated CQ uptake at 90 min (PfCRT^HB3; [2]): -0.39 pmol oocyte-1 and 2.75 pmol oocyte-1 and -0.41 pmol oocyte-1
- PfCRTHB3-mediated CQ uptake at 120 min (PfCRT^HB3; [2]): 0.98 pmol oocyte-1 and -0.51 pmol oocyte-1 and 0.90 pmol oocyte-1
- PfCRTHB3-mediated CQ uptake at 180 min (PfCRT^HB3; [2]): -0.99 pmol oocyte-1 and -1.15 pmol oocyte-1 and 3.20 pmol oocyte-1
- PfCRTDd2_H97Y_F145I-mediated CQ transport (PfCRT^Dd2_H97Y_F145I; 10 µM CQ): 0.56 pmol oocyte-1 h-1 and 0.57 pmol oocyte-1 h-1 and 0.94 pmol oocyte-1 h-1
- PfCRTDd2_H97Y_F145I-mediated CQ transport (PfCRT^Dd2_H97Y_F145I; 50 µM CQ): 1.87 pmol oocyte-1 h-1 and 2.38 pmol oocyte-1 h-1 and 2.20 pmol oocyte-1 h-1 and 4.15 pmol oocyte-1 h-1
- PfCRTDd2_H97Y_F145I-mediated CQ transport (PfCRT^Dd2_H97Y_F145I; 100 µM CQ): 6.01 pmol oocyte-1 h-1 and 3.76 pmol oocyte-1 h-1 and 7.81 pmol oocyte-1 h-1 and 7.54 pmol oocyte-1 h-1 and 7.03 pmol oocyte-1 h-1
- PfCRTDd2_H97Y_F145I-mediated CQ transport (PfCRT^Dd2_H97Y_F145I; 200 µM CQ): 12.93 pmol oocyte-1 h-1 and 22.31 pmol oocyte-1 h-1 and 9.72 pmol oocyte-1 h-1 and 19.44 pmol oocyte-1 h-1 and 15.86 pmol oocyte-1 h-1
- PfCRTDd2_H97Y_F145I-mediated CQ transport (PfCRT^Dd2_H97Y_F145I; 300 µM CQ): 22.26 pmol oocyte-1 h-1 and 28.62 pmol oocyte-1 h-1 and 11.32 pmol oocyte-1 h-1 and 17.61 pmol oocyte-1 h-1
- PfCRTDd2_H97Y_F145I-mediated CQ transport (PfCRT^Dd2_H97Y_F145I; 400 µM CQ): 20.46 pmol oocyte-1 h-1 and 24.94 pmol oocyte-1 h-1 and 27.66 pmol oocyte-1 h-1
- PfCRTDd2_H97Y_F145I-mediated CQ transport (PfCRT^Dd2_H97Y_F145I; 500 µM CQ): 23.29 pmol oocyte-1 h-1 and 35.24 pmol oocyte-1 h-1 and 26.54 pmol oocyte-1 h-1 and 24.00 pmol oocyte-1 h-1
- Hc, Hill coefficient (PfCRT^Dd2_H97Y_F145I): 1.6 ± 0.2
- Vmax, maximal velocity of drug transport (PfCRT^Dd2_H97Y_F145I): 35 ± 1 pmol oocyte^-1 h^-1 and 35 ± 4 pmol oocyte^-1 h^-1
- Km (PfCRT^Dd2_H97Y_F145I): 240 ± 40 µM

Compound: Clc1ccc2c(N3CCN(CCCN4CCN(c5ccnc6cc(Cl)ccc56)CC4)CC3)ccnc2c1 [PPQ, piperaquine]
- PfCRTHB3I PPQ uptake at 30 min (PfCRT^HB3; [3]): 72.50 pmol oocyte-1 and 74.50 pmol oocyte-1 and 59.24 pmol oocyte-1
- PfCRTHB3 PPQ uptake at 10 min (PfCRT^HB3; [3]): 38.64 pmol oocyte-1 and 39.15 pmol oocyte-1 and 28.68 pmol oocyte-1
- PfCRTHB3 PPQ uptake at 60 min (PfCRT^HB3; [3]): 123.26 pmol oocyte-1 and 113.71 pmol oocyte-1 and 93.83 pmol oocyte-1
- PfCRTHB3 PPQ uptake at 90 min (PfCRT^HB3; [3]): 136.75 pmol oocyte-1 and 135.43 pmol oocyte-1 and 118.84 pmol oocyte-1
- PfCRTHB3 PPQ uptake at 120 min (PfCRT^HB3; [3]): 198.78 pmol oocyte-1 and 176.89 pmol oocyte-1 and 174.87 pmol oocyte-1
- PfCRTHB3 PPQ uptake at 180 min (PfCRT^HB3; [3]): 161.64 pmol oocyte-1 and 186.48 pmol oocyte-1 and 220.34 pmol oocyte-1
- PfCRTHB3-mediated PPQ uptake at 10 min (PfCRT^HB3; [4]): 8.47 pmol oocyte-1 and 8.98 pmol oocyte-1 and -1.48 pmol oocyte-1
- PfCRTHB3-mediated PPQ uptake at 30 min (PfCRT^HB3; [4]): 7.50 pmol oocyte-1 and 9.50 pmol oocyte-1 and -5.76 pmol oocyte-1
- PfCRTHB3-mediated PPQ uptake at 60 min (PfCRT^HB3; [4]): 17.15 pmol oocyte-1 and 7.60 pmol oocyte-1 and -12.28 pmol oocyte-1
- PfCRTHB3-mediated PPQ uptake at 90 min (PfCRT^HB3; [4]): 16.35 pmol oocyte-1 and 15.03 pmol oocyte-1 and -1.56 pmol oocyte-1
- PfCRTHB3-mediated PPQ uptake at 120 min (PfCRT^HB3; [4]): -20.70 pmol oocyte-1 and -22.71 pmol oocyte-1 and 1.19 pmol oocyte-1
- PfCRTHB3-mediated PPQ uptake at 180 min (PfCRT^HB3; [4]): 33.25 pmol oocyte-1 and -25.45 pmol oocyte-1 and -0.62 pmol oocyte-1
- PfCRTDd2_H97Y_F145I-mediated PPQ transport (PfCRT^Dd2_H97Y_F145I; 10 µM PPQ): 4.45 pmol oocyte-1 h-1 and 2.50 pmol oocyte-1 h-1 and 6.51 pmol oocyte-1 h-1
- PfCRTDd2_H97Y_F145I-mediated PPQ transport (PfCRT^Dd2_H97Y_F145I; 50 µM PPQ): 12.64 pmol oocyte-1 h-1 and 8.74 pmol oocyte-1 h-1 and 25.96 pmol oocyte-1 h-1 and 14.99 pmol oocyte-1 h-1 and 20.94 pmol oocyte-1 h-1
- PfCRTDd2_H97Y_F145I-mediated PPQ transport (PfCRT^Dd2_H97Y_F145I; 100 µM PPQ): 28.86 pmol oocyte-1 h-1 and 38.51 pmol oocyte-1 h-1 and 10.62 pmol oocyte-1 h-1 and 34.53 pmol oocyte-1 h-1
- PfCRTDd2_H97Y_F145I-mediated PPQ transport (PfCRT^Dd2_H97Y_F145I; 200 µM PPQ): 112.27 pmol oocyte-1 h-1 and 50.98 pmol oocyte-1 h-1 and 60.86 pmol oocyte-1 h-1 and 71.21 pmol oocyte-1 h-1 and 85.02 pmol oocyte-1 h-1
- PfCRTDd2_H97Y_F145I-mediated PPQ transport (PfCRT^Dd2_H97Y_F145I; 300 µM PPQ): 111.40 pmol oocyte-1 h-1 and 72.67 pmol oocyte-1 h-1 and 112.81 pmol oocyte-1 h-1 and 115.57 pmol oocyte-1 h-1
- PfCRTDd2_H97Y_F145I-mediated PPQ transport (PfCRT^Dd2_H97Y_F145I; 400 µM PPQ): 94.84 pmol oocyte-1 h-1 and 111.83 pmol oocyte-1 h-1 and 131.05 pmol oocyte-1 h-1
- PfCRTDd2_H97Y_F145I-mediated PPQ transport (PfCRT^Dd2_H97Y_F145I; 500 µM PPQ): 81.84 pmol oocyte-1 h-1 and 171.24 pmol oocyte-1 h-1 and 123.65 pmol oocyte-1 h-1 and 87.38 pmol oocyte-1 h-1
- Hc, Hill coefficient (PfCRT^Dd2_H97Y_F145I): 2.0 ± 0.3
- Vmax, maximal velocity of drug transport (PfCRT^Dd2_H97Y_F145I): 131 ± 3 pmol oocyte^-1 h^-1 and 131 ± 10 pmol oocyte^-1 h^-1
- Km (PfCRT^Dd2_H97Y_F145I): 170 ± 20 µM
